Our source for the IC50 values is patent US10294207B2, “Pyrazole derivatives as TNIK, IKKϵ and TBK1 inhibitor and pharmaceutical composition comprising same” (GREEN CROSS CORPORATION, priority 2015, dated 2019).

One experiment has as its target T1, IKKε (Homo sapiens, UniProt Q14164).
T1 construct: purchased Invitrogen PR8031B
T1 sequence (Q14164 1-716): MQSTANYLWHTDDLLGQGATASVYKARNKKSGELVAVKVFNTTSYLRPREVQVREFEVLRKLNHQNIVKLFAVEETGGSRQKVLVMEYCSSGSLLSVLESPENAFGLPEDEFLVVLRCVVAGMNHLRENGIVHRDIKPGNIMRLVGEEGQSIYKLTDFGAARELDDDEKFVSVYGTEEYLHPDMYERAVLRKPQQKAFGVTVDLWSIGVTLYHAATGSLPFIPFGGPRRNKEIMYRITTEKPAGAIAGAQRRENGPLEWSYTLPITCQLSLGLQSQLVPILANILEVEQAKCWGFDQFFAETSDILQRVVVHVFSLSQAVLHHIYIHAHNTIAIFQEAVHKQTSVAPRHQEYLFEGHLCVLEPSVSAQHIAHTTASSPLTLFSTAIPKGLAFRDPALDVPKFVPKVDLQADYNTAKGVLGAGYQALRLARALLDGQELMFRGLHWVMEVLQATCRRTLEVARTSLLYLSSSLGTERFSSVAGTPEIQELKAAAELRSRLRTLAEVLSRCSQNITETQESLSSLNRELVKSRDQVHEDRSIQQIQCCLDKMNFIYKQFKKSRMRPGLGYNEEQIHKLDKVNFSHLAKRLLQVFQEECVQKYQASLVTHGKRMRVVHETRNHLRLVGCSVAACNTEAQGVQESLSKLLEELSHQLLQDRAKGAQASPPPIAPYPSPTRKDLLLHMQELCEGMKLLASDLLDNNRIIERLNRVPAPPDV
In words: IKKε inhibition, ADP-Glo Kinase Assay. It is filed as biochemical. To be noted: luminometer. The method, then:
(§1) Inhibition activities on TNIK, IKKε and TBK1 were evaluated using the compounds of Examples 1 to 254.
(§2) The inhibition activities on TNIK, IKKε and TBK1 were measured by a luminometer, TNIK/IKKε/TBK1 Kinase Enzyme System (Promega, Ca# V4158; Invitrogen, PR8031B, Promega, Ca# V3991) and ADP-Glo Kinase Assay using ADP-Glo™ Kinase Analysis Kit (Promega, Ca# V9101) and a kinase reaction buffer [40 mM Tris(pH 7.5), 20 mM MgCl2, 0.1 mg/mL BSA] in accordance with the manufacturer's protocol.

A further experiment has as its target T2, TBK1 (Homo sapiens, UniProt Q9UHD2).
T2 construct: purchased Promega V3991
T2 sequence (Q9UHD2 1-729): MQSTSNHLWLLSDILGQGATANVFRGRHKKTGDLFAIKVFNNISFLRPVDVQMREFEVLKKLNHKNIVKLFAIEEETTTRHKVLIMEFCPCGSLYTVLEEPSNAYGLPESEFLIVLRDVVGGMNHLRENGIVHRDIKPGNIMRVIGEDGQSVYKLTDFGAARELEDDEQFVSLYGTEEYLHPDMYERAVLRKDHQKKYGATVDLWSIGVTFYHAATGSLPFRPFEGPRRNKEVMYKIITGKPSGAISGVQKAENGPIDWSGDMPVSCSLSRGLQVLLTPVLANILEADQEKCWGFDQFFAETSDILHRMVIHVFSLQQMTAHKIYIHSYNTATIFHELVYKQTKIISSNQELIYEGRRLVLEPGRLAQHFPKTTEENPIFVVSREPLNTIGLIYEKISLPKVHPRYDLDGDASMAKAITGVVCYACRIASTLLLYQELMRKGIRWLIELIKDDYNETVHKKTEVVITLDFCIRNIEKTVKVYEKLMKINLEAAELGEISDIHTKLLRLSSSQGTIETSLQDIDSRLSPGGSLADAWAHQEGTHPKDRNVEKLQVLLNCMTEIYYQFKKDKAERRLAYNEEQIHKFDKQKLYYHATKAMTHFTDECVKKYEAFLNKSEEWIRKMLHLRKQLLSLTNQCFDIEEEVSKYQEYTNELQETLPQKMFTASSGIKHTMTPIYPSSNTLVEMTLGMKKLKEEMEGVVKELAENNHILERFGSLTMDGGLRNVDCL
In words: TBK1 inhibition, ADP-Glo Kinase Assay. It is filed as biochemical. To be noted: luminometer. How it is done:
as §1, §2

As to `O=C(NCc1ccsc1)c1ccc2[nH]nc(NC(=O)c3ccc(N4CCOCC4)cc3)c2c1` [Example 46, 3-(4-Morpholinobenzamido)-N-(thiophen-3-ylmethyl)-1H-indazole-5-carboxamide], the IC50 against IKKε turned out to be 0.022 µM; at TBK1, 0.0015 µM.
With `CN1CCN(c2ccc(C(=O)Nc3n[nH]c4ccc(C(=O)NCc5ccsc5)cc34)cc2)CC1` [Example 47, 3-(4-(4-Methylpiperazin-1-yl)benzamido)-N-(thiophen-3-ylmethyl)-1H-indazole-5-carboxamide], the IC50 against IKKε worked out at 0.014 µM; against TBK1 it was 0.0014 µM.
In the same order, the values of `O=C(Nc1n[nH]c2ccc(C(=O)NC3(c4cccs4)CC3)cc12)c1ccc(N2CCOCC2)cc1` [Example 48, 3-(4-Morpholinobenzamido)-N-(1-(thiophen-2-yl)cyclopropyl)-1H-indazole-5-carboxamide] are 0.0032 µM and 0.0011 µM.
Regarding `CN1CCN(c2ccc(C(=O)Nc3n[nH]c4ccc(C(=O)NC5(c6cccs6)CC5)cc34)cc2)CC1` [Example 49, 3-(4-(4-Methylpiperazin-1-yl)benzamido)-N-(1-(thiophen-2-yl)cyclopropyl)-1H-indazole-5-carboxamide], the results for the concentration for half-maximal inhibition (IC50) at IKKε and on TBK1 were 0.0034 µM and 0.0025 µM, respectively.
Regarding `O=C(NCc1ccco1)c1ccc2[nH]nc(NC(=O)c3ccc(N4CCOCC4)cc3)c2c1` [Example 50, N-(Furan-2-ylmethyl)-3-(4-morpholinobenzamido)-1H-indazole-5-carboxamide], the results for the IC50 on IKKε and on TBK1 were 0.037 µM and 0.0058 µM, respectively.
For `CN1CCN(c2ccc(C(=O)Nc3n[nH]c4ccc(C(=O)NCc5ccco5)cc34)cc2)CC1` [Example 51, N-(Furan-2-ylmethyl)-3-(4-(4-methylpiperazin-1-yl)benzamido)-1H-indazole-5-carboxamide], the half-inhibitory concentration (IC50) worked out at 0.064 µM against IKKε and 0.0081 µM against TBK1.
For the molecule `CC(NC(=O)c1ccc2[nH]nc(NC(=O)c3ccc(N4CCOCC4)cc3)c2c1)c1cccnc1` (stereo not shown) [Example 52, 3-(4-Morpholinobenzamido)-N-(1-(pyridin-3-yl)ethyl)-1H-indazole-5-carboxamide], the IC50 was over 10 µM against IKKε and 0.014 µM on TBK1.
In the same order, the values of `CC(NC(=O)c1ccc2[nH]nc(NC(=O)c3ccc(N4CCN(C)CC4)cc3)c2c1)c1cccnc1` (stereo not shown) [Example 53, 3-(4-(4-Methylpiperazin-1-yl)benzamido)-N-(1-(pyridin-3-yl)ethyl)-1H-indazole-5-carboxamide] are over 10 µM and 0.021 µM.
In the same order, the values of `CCC(NC(=O)c1ccc2[nH]nc(NC(=O)c3ccc(N4CCOCC4)cc3)c2c1)c1cccs1` (stereo not shown) [Example 54, 3-(4-Morpholinobenzamido)-N-(1-(thiophen-2-yl)propyl)-1H-indazole-5-carboxamide] are 0.0031 µM and 0.00036 µM.
In the case of `CCC(NC(=O)c1ccc2[nH]nc(NC(=O)c3ccc(N4CCN(C)CC4)cc3)c2c1)c1cccs1` (stereo not shown) [Example 55, 3-(4-(4-Methylpiperazin-1-yl)benzamido)-N-(1-(thiophen-2-yl)propyl)-1H-indazole-5-carboxamide], the IC50 against IKKε amounted to 0.0027 µM; on TBK1, 0.00093 µM.
Turning to `O=C(NCc1cccnc1)c1ccc2[nH]nc(NC(=O)c3ccc(N4CCOCC4)cc3)c2c1` [Example 56, 3-(4-Morpholinobenzamido)-N-(pyridin-3-ylmethyl)-1H-indazole-5-carboxamide 2,2,2-trifluoroacetate], the values for the IC50 against IKKε and against TBK1 were 0.1 µM and 0.0033 µM, respectively.
Consider `CN1CCN(c2ccc(C(=O)Nc3n[nH]c4ccc(C(=O)NCc5cccnc5)cc34)cc2)CC1` [Example 57, 3-(4-(4-Methylpiperazin-1-yl)benzamido)-N-(pyridin-3-ylmethyl)-1H-indazole-5-carboxamide bis(2,2,2-trifluoroacetate)], for which the values for the IC50 at IKKε and at TBK1 were 0.14 µM and 0.0012 µM, respectively.
For `CCCC(NC(=O)c1ccc2[nH]nc(NC(=O)c3ccc(N4CCOCC4)cc3)c2c1)c1cccs1` (stereo not shown) [Example 58, 3-(4-Morpholinobenzamido)-N-(1-(thiophen-2-yl)butyl)-1H-indazole-5-carboxamide], the IC50 at IKKε amounted to 0.13 µM; against TBK1 it was 0.039 µM.
Take `CCCC(NC(=O)c1ccc2[nH]nc(NC(=O)c3ccc(N4CCN(C)CC4)cc3)c2c1)c1cccs1` (stereo not shown) [Example 59, 3-(4-(4-Methylpiperazin-1-yl)benzamido)-N-(1-(thiophen-2-yl)butyl)-1H-indazole-5-carboxamide]: the figures for the IC50 against IKKε and on TBK1 were 0.11 µM and 0.032 µM, respectively.
In the same order, the values of `Cc1ccc(CNC(=O)c2ccc3[nH]nc(NC(=O)c4ccc(N5CCOCC5)cc4)c3c2)s1` [Example 60, N-((5-Methylthiophen-2-yl)methyl)-3-(4-morpholinobenzamido)-1H-indazole-5-carboxamide] are 0.28 µM and 0.034 µM.
As to `Cc1ccc(CNC(=O)c2ccc3[nH]nc(NC(=O)c4ccc(N5CCN(C)CC5)cc4)c3c2)s1` [Example 61, 3-(4-(4-Methylpiperazin-1-yl)benzamido)-N-((5-methylthiophen-2-yl)methyl)-1H-indazole-5-carboxamide], the figures for the IC50 against IKKε and against TBK1 were 0.23 µM and 0.056 µM, respectively.
Regarding `CC(C)(NC(=O)c1ccc2[nH]nc(NC(=O)c3ccc(N4CCOCC4)cc3)c2c1)c1ccccc1` [Example 62, 3-(4-Morpholinobenzamido)-N-(2-phenylpropan-2-yl)-1H-indazole-5-carboxamide], the IC50 on IKKε worked out at 0.032 µM; at TBK1 it was 0.011 µM.
With `CN1CCN(c2ccc(C(=O)Nc3n[nH]c4ccc(C(=O)NC(C)(C)c5ccccc5)cc34)cc2)CC1` [Example 63, 3-(4-(4-Methylpiperazin-1-yl)benzamido)-N-(2-phenylpropan-2-yl)-1H-indazole-5-carboxamide], the 50% inhibitory concentration (IC50) on IKKε is 0.036 µM; on TBK1 it was 0.0094 µM.
Regarding `O=C(NCc1ccc(C(F)(F)F)cc1)c1ccc2[nH]nc(NC(=O)c3ccc(N4CCOCC4)cc3)c2c1` [Example 65, 3-(4-Morpholinobenzamido)-N-(4-(trifluoromethyl)benzyl)-1H-indazole-5-carboxamide], the half-inhibitory concentration (IC50) against IKKε is 1.95 µM; against TBK1, 0.76 µM.
Turning to `CN1CCN(c2ccc(C(=O)Nc3n[nH]c4ccc(C(=O)NCc5ccc(C(F)(F)F)cc5)cc34)cc2)CC1` [Example 66, 3-(4-(4-Methylpiperazin-1-yl)benzamido)-N-(4-(trifluoromethyl)benzyl)-1H-indazole-5-carboxamide], the IC50 against IKKε came out at 3.19 µM; against TBK1, 0.98 µM.
Turning to `O=C(Nc1n[nH]c2ccc(C(=O)NC3(c4ccccc4)CC3)cc12)c1ccc(N2CCOCC2)cc1` [Example 67, 3-(4-Morpholinobenzamido)-N-(1-phenylcyclopropyl)-1H-indazole-5-carboxamide], the results for the half-maximal inhibitory concentration (IC50) at IKKε and at TBK1 were 0.005 µM and 0.003 µM, respectively.
As to `CN1CCN(c2ccc(C(=O)Nc3n[nH]c4ccc(C(=O)NC5(c6ccccc6)CC5)cc34)cc2)CC1` [Example 68, 3-(4-(4-Methylpiperazin-1-yl)benzamido)-N-(1-phenylcyclopropyl)-1H-indazole-5-carboxamide], the values for the IC50 on IKKε and on TBK1 were 0.0042 µM and 0.0006 µM, respectively.
In the same order, the values of `Cc1cc(CNC(=O)c2ccc3[nH]nc(NC(=O)c4ccc(N5CCOCC5)cc4)c3c2)ccn1` [Example 69, N-((2-Methylpyridin-4-yl)methyl)-3-(4-morpholinobenzamido)-1H-indazole-5-carboxamide] are 2.72 µM and 0.38 µM.
